Laboratory results: patent US9695155B2, “Herbicidal substituted pyrimidinyloxy benzene compounds” (E. I. DU PONT DE NEMOURS AND COMPANY, priority 2013, dated 2017)

Legend:
soybean = assay: Test C preemergence; type: in vivo, Glycine max; settings: for Soybean plant response rating: preemergence; for Plant response rating, Soybean: Preemergence, scale 0 to 100, 0 no effect, 100 complete control
Summary of the method: (§1)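 Seeds were sown in loam–sand blend and sprayed preemergence, while plants at 1- to 4-leaf stage (2–18 cm) in peat-based medium received postemergence sprays; test chemicals were formulated in a non-phytotoxic solvent with surfactant. After 13–15 days in a greenhouse, injury was rated visually against controls, 0 (no effect) to 100 (complete control).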

wheat = assay: Test A postemergence; type: in vivo, Triticum aestivum
Summary of the method: (§2)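 Visual injury scored 0–100 (100 = complete control) against untreated controls about 10 days after treatment in a greenhouse. Test chemicals, formulated with surfactant in non-phytotoxic solvent, were sprayed on soil preemergence or on 2-10 cm, one- to two-leaf plants postemergence.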

yellow nutsedge = assay: Test C preemergence; type: in vivo, Cyperus esculentus; settings: for Nutsedge, Yellow plant response rating: preemergence; for Plant response rating, Nutsedge, Yellow: Preemergence, scale 0 to 100, 0 no effect, 100 complete control
Summary of the method: as §1

kochia = assay: Test A postemergence; type: in vivo, Kochia scoparia
Summary of the method: as §2

large (Lg) crabgrass = assay: Test C postemergence; type: in vivo, Digitaria sanguinalis; settings: for Crabgrass, Large plant response rating / Plant response rating, Crabgrass, Large: scale 0 to 100 (0 no effect, 100 complete control)
Summary of the method: as §1

morningglory = assay: Test C preemergence; type: in vivo, Ipomoea coccinea; settings: for Morningglory plant response rating: preemergence; for Plant response rating, Morningglory: Preemergence, scale 0 to 100, 0 no effect, 100 complete control
Summary of the method: as §1

barnyardgrass [1] = assay: Test A postemergence; type: in vivo, Echinochloa crus-galli
Summary of the method: as §2

giant foxtail = assay: Test A postemergence; type: in vivo, Setaria faberii
Summary of the method: as §2

barnyardgrass [2] = assay: Test C preemergence; type: in vivo, Echinochloa crus-galli; settings: for Barnyardgrass plant response rating: preemergence; for Plant response rating, Barnyardgrass: Preemergence, scale 0 to 100, 0 no effect, 100 complete control
Summary of the method: as §1

blackgrass [3] = assay: Test C postemergence; type: in vivo, Alopecurus myosuroides; settings: for Blackgrass plant response rating / Plant response rating, Blackgrass: scale 0 to 100 (0 no effect, 100 complete control)
Summary of the method: as §1

Italian ryegrass [4] = assay: Test A postemergence; type: in vivo, Lolium multiflorum
Summary of the method: as §2

johnsongrass = assay: Test C preemergence; type: in vivo, Sorghum halepense; settings: for Johnsongrass plant response rating: preemergence; for Plant response rating, Johnsongrass: Preemergence, scale 0 to 100, 0 no effect, 100 complete control
Summary of the method: as §1

ragweed [5] = assay: Test A postemergence; type: in vivo, Ambrosia elatior
Summary of the method: as §2

blackgrass [6] = assay: Test C preemergence; type: in vivo, Alopecurus myosuroides; settings: for Blackgrass plant response rating: preemergence; for Plant response rating, Blackgrass: Preemergence, scale 0 to 100, 0 no effect, 100 complete control
Summary of the method: as §1

oilseed rape [7] = assay: Test C postemergence; type: in vivo, Brassica napus
Summary of the method: as §1

ragweed [8] = assay: Test C preemergence; type: in vivo, Ambrosia elatior; settings: for Ragweed plant response rating: preemergence; for Plant response rating, Ragweed: Preemergence, scale 0 to 100, 0 no effect, 100 complete control
Summary of the method: as §1

Italian ryegrass [9] = assay: Test C preemergence; type: in vivo, Lolium multiflorum; settings: for Ryegrass, Italian plant response rating: preemergence; for Plant response rating, Ryegrass, Italian: Preemergence, scale 0 to 100, 0 no effect, 100 complete control
Summary of the method: as §1

oilseed rape [10] = assay: Test C preemergence; type: in vivo, Brassica napus; settings: for Oilseed Rape plant response rating: preemergence; for Plant response rating, Oilseed Rape: Preemergence, scale 0 to 100, 0 no effect, 100 complete control
Summary of the method: as §1

[11] = 16 g ai/ha, scale 0 to 100 (0 no effect, 100 complete control)
[12] = 125 g ai/ha, scale 0 (no effect) to 100 (complete control)
[13] = 125 g ai/ha, 0 to 100 scale, 0 no effect, 100 complete control
[14] = 500 g ai/ha, 0 to 100 scale where 0 is no effect and 100 is complete control
[15] = 16 g ai/ha, postemergence, 0 is no effect, 100 is complete control
[16] = 31 g ai/ha, postemergence, visual rating, 13 to 15 days
[17] = 125 g ai/ha, postemergence, visual rating
[18] = Postemergence, 62 g ai/ha, 13 to 15 days
[19] = 62 g ai/ha, scale 0 (no effect) to 100 (complete control)
[20] = 125 g ai/ha, 0 to 100 scale where 0 is no effect and 100 is complete control
[21] = 16 g ai/ha, postemergence, visual rating, 13 to 15 days
[22] = Postemergence, 31 g ai/ha, 13 to 15 days

For `N#Cc1cnn(-c2c(Oc3ncc(F)cn3)cccc2C(F)F)c1` [Compound 240], the “Soybean plant response rating” value (soybean; [11]) was 40, the “Soybean plant response rating” value (soybean; [12]) was 98 and the “Plant response rating, Soybean” value (soybean; 62 g ai/ha) was 85. For the same molecule, the “Plant response rating, Wheat” value (wheat; [13]) was 30, the “Plant response rating, Wheat” value (wheat; [14]) was 90 and the “Nutsedge, Yellow plant response rating” value (yellow nutsedge; [11]) was 0. For the same molecule, the “Nutsedge, Yellow plant response rating” value (yellow nutsedge; [12]) was 40, the “Plant response rating, Nutsedge, Yellow” value (yellow nutsedge; 62 g ai/ha) was 15 and the “Plant response rating, Kochia” value (kochia; [13]) was 100. The “Plant response rating, Kochia” value (kochia; [14]) was 60, the “Plant response rating (0 to 100), Crabgrass, Large” value (large (Lg) crabgrass; [15]) was 10 and the “Crabgrass, Large plant response rating” value (large (Lg) crabgrass; [16]) was 5. For the same molecule, the “Plant response rating, Crabgrass, Large” value (large (Lg) crabgrass; [17]) was 20, the “Plant response rating, Crabgrass, Large” value (large (Lg) crabgrass; [18]) was 5 and the “Morningglory plant response rating” value (morningglory; [11]) was 15. The “Morningglory plant response rating” value (morningglory; [12]) was 75, the “Plant response rating, Morningglory” value (morningglory; 62 g ai/ha) was 75 and the “Plant response rating, Barnyardgrass” value (barnyardgrass [1]; [13]) was 90. The “Plant response rating, Barnyardgrass” value (barnyardgrass [1]; [14]) was 100, the “Plant response rating, Foxtail, Giant” value (giant foxtail; [13]) was 90 and the “Plant response rating, Foxtail, Giant” value (giant foxtail; [14]) was 100. For the same molecule, the “Barnyardgrass plant response rating” value (barnyardgrass [2]; [11]) was 5, the “Barnyardgrass plant response rating” value (barnyardgrass [2]; [12]) was 100 and the “Plant response rating, Barnyardgrass” value (barnyardgrass [2]; 62 g ai/ha) was 60. For the same molecule, the “Plant response rating (0 to 100), Blackgrass” value (blackgrass [3]; [15]) was 0, the “Blackgrass plant response rating” value (blackgrass [3]; [16]) was 0 and the “Plant response rating, Blackgrass” value (blackgrass [3]; [17]) was 5. For the same molecule, the “Plant response rating, Blackgrass” value (blackgrass [3]; [18]) was 0, the “Plant response rating, Ryegrass, Italian” value (Italian ryegrass [4]; [13]) was 40 and the “Plant response rating, Ryegrass, Italian” value (Italian ryegrass [4]; [14]) was 100. For the same molecule, the “Johnsongrass plant response rating” value (johnsongrass; [11]) was 5, the “Johnsongrass plant response rating” value (johnsongrass; [12]) was 45 and the “Plant response rating, Johnsongrass” value (johnsongrass; 62 g ai/ha) was 10. The “Plant response rating, Ragweed” value (ragweed [5]; [13]) was 100, the “Plant response rating, Ragweed” value (ragweed [5]; [14]) was 100 and the “Blackgrass plant response rating” value (blackgrass [6]; [11]) was 0. The “Blackgrass plant response rating” value (blackgrass [6]; [12]) was 95, the “Plant response rating, Blackgrass” value (blackgrass [6]; 62 g ai/ha) was 95 and the “Plant response rating (0 to 100), Oilseed Rape” value (oilseed rape [7]; [15]) was 30. The “Oilseed Rape plant response rating” value (oilseed rape [7]; 31 g ai/ha, postemergence, visual rating, scale 0 to 100 (0 no effect, 100 complete control), 13 to 15 days) was 35, the “Plant response rating, Oilseed Rape” value (oilseed rape [7]; 125 g ai/ha, postemergence, visual rating, scale 0 to 100 (0 no effect, 100 complete control)) was 60 and the “Plant response rating, Oilseed Rape” value (oilseed rape [7]; Postemergence, 62 g ai/ha, scale 0 to 100 (0 no effect, 100 complete control), 13 to 15 days) was 55. The “Ragweed plant response rating” value (ragweed [8]; [11]) was 10, the “Ragweed plant response rating” value (ragweed [8]; [12]) was 80 and the “Plant response rating, Ragweed” value (ragweed [8]; 62 g ai/ha) was 100. The “Ryegrass, Italian plant response rating” value (Italian ryegrass [9]; [11]) was 0, the “Ryegrass, Italian plant response rating” value (Italian ryegrass [9]; [12]) was 50 and the “Plant response rating, Ryegrass, Italian” value (Italian ryegrass [9]; 62 g ai/ha) was 0. For the same molecule, the “Oilseed Rape plant response rating” value (oilseed rape [10]; [11]) was 70, the “Oilseed Rape plant response rating” value (oilseed rape [10]; [12]) was 100 and the “Plant response rating, Oilseed Rape” value (oilseed rape [10]; 62 g ai/ha) was 100.
In the case of `Cc1cnc(Oc2cccc(C#N)c2-n2cc(C#N)cn2)nc1` [Compound 90], the “Soybean plant response rating” value (soybean; [11]) is reported as 25, the “Soybean plant response rating” value (soybean; [19]) is reported as 65 and the “Soybean plant response rating” value (soybean; [12]) is reported as 95. For the same molecule, the “Plant response rating, Soybean” value (soybean; 31 g ai/ha) was 35, the “Plant response rating, Wheat” value (wheat; [20]) was 0 and the “Plant response rating, Wheat” value (wheat; [14]) was 50. The “Nutsedge, Yellow plant response rating” value (yellow nutsedge; [11]) was 35, the “Nutsedge, Yellow plant response rating” value (yellow nutsedge; [19]) was 5 and the “Nutsedge, Yellow plant response rating” value (yellow nutsedge; [12]) was 60. The “Plant response rating, Nutsedge, Yellow” value (yellow nutsedge; 31 g ai/ha) was 0, the “Plant response rating, Kochia” value (kochia; [20]) was 90 and the “Plant response rating, Kochia” value (kochia; [14]) was 100. The “Crabgrass, Large plant response rating” value (large (Lg) crabgrass; [21]) was 5, the “Plant response rating (0 to 100), Crabgrass, Large” value (large (Lg) crabgrass; 125 g ai/ha, postemergence) was 10 and the “Plant response rating, Crabgrass, Large” value (large (Lg) crabgrass; [22]) was 5. For the same molecule, the “Plant response rating, Crabgrass, Large” value (large (Lg) crabgrass; Postemergence, 62 g ai/ha) was 10, the “Morningglory plant response rating” value (morningglory; [11]) was 0 and the “Morningglory plant response rating” value (morningglory; [19]) was 55. For the same molecule, the “Morningglory plant response rating” value (morningglory; [12]) was 100, the “Plant response rating, Morningglory” value (morningglory; 31 g ai/ha) was 20 and the “Plant response rating, Barnyardgrass” value (barnyardgrass [1]; [20]) was 90. For the same molecule, the “Plant response rating, Barnyardgrass” value (barnyardgrass [1]; [14]) was 100, the “Plant response rating, Foxtail, Giant” value (giant foxtail; [20]) was 80 and the “Plant response rating, Foxtail, Giant” value (giant foxtail; [14]) was 90. The “Barnyardgrass plant response rating” value (barnyardgrass [2]; [11]) was 0, the “Barnyardgrass plant response rating” value (barnyardgrass [2]; [19]) was 75 and the “Barnyardgrass plant response rating” value (barnyardgrass [2]; [12]) was 85. For the same molecule, the “Plant response rating, Barnyardgrass” value (barnyardgrass [2]; 31 g ai/ha) was 5, the “Blackgrass plant response rating” value (blackgrass [3]; [21]) was 0 and the “Plant response rating (0 to 100), Blackgrass” value (blackgrass [3]; 125 g ai/ha, postemergence) was 15. The “Plant response rating, Blackgrass” value (blackgrass [3]; [22]) was 0, the “Plant response rating, Blackgrass” value (blackgrass [3]; Postemergence, 62 g ai/ha) was 5 and the “Plant response rating, Ryegrass, Italian” value (Italian ryegrass [4]; [20]) was 30. The “Plant response rating, Ryegrass, Italian” value (Italian ryegrass [4]; [14]) was 80, the “Johnsongrass plant response rating” value (johnsongrass; [11]) was 5 and the “Johnsongrass plant response rating” value (johnsongrass; [19]) was 20. For the same molecule, the “Johnsongrass plant response rating” value (johnsongrass; [12]) was 80, the “Plant response rating, Johnsongrass” value (johnsongrass; 31 g ai/ha) was 10 and the “Plant response rating, Ragweed” value (ragweed [5]; [20]) was 60. For the same molecule, the “Plant response rating, Ragweed” value (ragweed [5]; [14]) was 80, the “Blackgrass plant response rating” value (blackgrass [6]; [11]) was 5 and the “Blackgrass plant response rating” value (blackgrass [6]; [19]) was 30. For the same molecule, the “Blackgrass plant response rating” value (blackgrass [6]; [12]) was 85, the “Plant response rating, Blackgrass” value (blackgrass [6]; 31 g ai/ha) was 5 and the “Plant response rating (0 to 100), Oilseed Rape” value (oilseed rape [7]; 125 g ai/ha, postemergence) was 40. For the same molecule, the “Plant response rating, Oilseed Rape” value (oilseed rape [7]; Postemergence, 31 g ai/ha, scale 0 to 100 (0 no effect, 100 complete control), 13 to 15 days) was 5, the “Plant response rating, Oilseed Rape” value (oilseed rape [7]; Postemergence, 62 g ai/ha, scale 0 to 100 (0 no effect, 100 complete control)) was 50 and the “Ragweed plant response rating” value (ragweed [8]; [11]) was 10. For the same molecule, the “Ragweed plant response rating” value (ragweed [8]; [19]) was 100, the “Ragweed plant response rating” value (ragweed [8]; [12]) was 95 and the “Plant response rating, Ragweed” value (ragweed [8]; 31 g ai/ha) was 60. The “Ryegrass, Italian plant response rating” value (Italian ryegrass [9]; [11]) was 0, the “Ryegrass, Italian plant response rating” value (Italian ryegrass [9]; [19]) was 0 and the “Ryegrass, Italian plant response rating” value (Italian ryegrass [9]; [12]) was 50. The “Plant response rating, Ryegrass, Italian” value (Italian ryegrass [9]; 31 g ai/ha) was 0, the “Oilseed Rape plant response rating” value (oilseed rape [10]; [11]) was 60 and the “Oilseed Rape plant response rating” value (oilseed rape [10]; [19]) was 98. For the same molecule, the “Oilseed Rape plant response rating” value (oilseed rape [10]; [12]) was 100 and the “Plant response rating, Oilseed Rape” value (oilseed rape [10]; 31 g ai/ha) was 80.
